One series concerns A549 cells. Put plainly: Annexin V-FITC/propidium iodide flow cytometry on A549. The series is classed as cell-based, human. To be noted: A549 cell line, IC50 concentration; for % Early Apoptotic / % Late Apoptotic / % Necrotic / % Viable: 24 h. The protocol:
(§1) Evaluation of apoptosis was carried out through the Annexin V-FITC Apoptosis Detection Kit from BD, Pharmingen, according to the manufacturer’s instruction. […] Then cells were rinsed with cold water twice and resuspended in Annexin V-FITC binding buffer at a concentration of 1 × 10^6 cells/mL. […] of Annexin V-FITC was used to stain the cells. After 15 min of incubation at 25 °C, the cell suspension was centrifugated for 5 min and cells were resuspended in Annexin V-FITC binding buffer. Propidium iodide ([…]) was added and the tubes were situated on ice and away from light. The fluorescence was measured using a flow cytometer. The results were analyzed by using FCSExpress software and represented as percentage of normal and apoptotic cells at various stages. […] The four areas in the diagrams stand for necrotic cells (Q1, positive for PI and negative for annexin/FITC, left square on the top), live cells (Q3, negative for annexin and PI, left square at the bottom), late apoptotic or necrotic cells (Q2, positive for annexin and PI, right square on the top) and apoptotic cells (Q4, negative for PI and positive for annexin, right square at the bottom), respectively. The experiment was repeated three times.

Series [1] deals with human breast adenocarcinoma cell line (MCF-7). Put plainly: MTT cytotoxicity assay on MCF-7. In kind it is cell-based. To be noted: for IC50: Homo sapiens, MCF7, MTT, 24 h incubation; for SI MCF-7 (selectivity index): NIH/3T3 versus MCF-7. The procedure: (§2) This is a colorimetric assay that measures the reduction of 3-(4,5-dimethylthiazol-2-yl)-2,4,diphenyltetrazolium bromide (MTT) by mitochondria. All final compounds were tested against human breast adenocarcinoma cell line (MCF-7), human lung carcinoma cell line (A549) and mouse embryooblast cell line (NIH/3T3) to determine their cytotoxic profile. Cancer cells were cultured in RPMI medium (Hyclone, Thermo Scientific, Waltham, MA, USA) at 37 °C in a humidified atmosphere of 95% air and 5% CO2. The studied cells were situated at 2 × 10^4 cells into each well of 96-well microtiter tissue culture plates (Nunc, Denmark) and incubated for 24 h. After that, test compounds were dissolved in DMSO and added to culture wells at varying concentrations (85–1000 µM). After a 24 h incubating period, […] MTT solution (5 mg/mL MTT powder in PBS) was added to each well and the cells were incubated for 4 h at 37 °C. The purple formazan crystals produced were dissolved in DMSO and the absorbance was read by ELISA reader (OD570 nm). The percent values of cell proliferations were calculated relative to controls, whose cell proliferations were accepted as 100% [47].
A general note: Tetrazolium assays rely on reduction of a dye to a coloured formazan, in cell work by metabolically active cells.

In series [2] the target is acetylcholinesterase (AChE) (Homo sapiens, UniProt P22303). Put plainly: biochemical. To be noted: 80 µg/mL (~160 µM). The protocol:
(§3) In order to determine the acetyl- and butyrylcholinesterase enzyme inhibitions, experiments were carried out by making some changes in the method developed by Ellman. Samples were prepared by dissolving in the appropriate solvent. Adding 20 μL enzyme solution (AChE or BuChE, 1 U/mL) and 10 μL sample solution to 2.4 mL buffer solution and it was incubated for 15 min at 37 °C. After incubation, 50 μL DTNB and 75 mM ATCI solution or 20 μL of 25 mM BTCI solution were added and allowed the mixture to incubate at room temperature for 30 min. For the control group, only 10 μL of solvent was added instead of the sample solution provided all protocols are the same. […] Experiments were run in triplicate. The inhibition fractions of AChE […] BuChE enzymes were calculated using the following equation:I(%) = 100 − ([…]) × 100

The target in series [3] is butyrylcholinesterase (BuChE) (Homo sapiens, UniProt P06276). Put plainly: biochemical. To be noted: 80 µg/mL (~160 µM). The protocol:
as §3

The subject of series [4] is human lung carcinoma cell line (A549). Put plainly: MTT cytotoxicity assay on A549. The series is classed as cell-based. To be noted: for IC50: Homo sapiens, A549, MTT, 24 h incubation; for SI A549 (selectivity index): NIH/3T3 versus A549. The protocol:
as §2

In series [5] the test system is mouse embryoblast cell line (NIH/3T3). Put plainly: MTT cytotoxicity assay on NIH/3T3 (healthy cells). In kind it is cell-based. To be noted: NIH3T3, 24 h incubation. The procedure:
as §2

Series [6] deals with MCF-7 cells. Put plainly: Annexin V-FITC/propidium iodide flow cytometry on MCF-7. In kind it is cell-based, human. To be noted: MCF-7 cell line, IC50 concentration; for % Early Apoptotic / % Late Apoptotic / % Necrotic / % Viable: 24 h. The protocol:
as §1
For orientation: A flow cytometer gives signals particle by particle.

The subject of series [7] is MCF-7 cells. Put plainly: DNA synthesis inhibition (BrdU) on MCF-7.

Sequence of acetylcholinesterase (AChE) (P22303 32-614, species assumed): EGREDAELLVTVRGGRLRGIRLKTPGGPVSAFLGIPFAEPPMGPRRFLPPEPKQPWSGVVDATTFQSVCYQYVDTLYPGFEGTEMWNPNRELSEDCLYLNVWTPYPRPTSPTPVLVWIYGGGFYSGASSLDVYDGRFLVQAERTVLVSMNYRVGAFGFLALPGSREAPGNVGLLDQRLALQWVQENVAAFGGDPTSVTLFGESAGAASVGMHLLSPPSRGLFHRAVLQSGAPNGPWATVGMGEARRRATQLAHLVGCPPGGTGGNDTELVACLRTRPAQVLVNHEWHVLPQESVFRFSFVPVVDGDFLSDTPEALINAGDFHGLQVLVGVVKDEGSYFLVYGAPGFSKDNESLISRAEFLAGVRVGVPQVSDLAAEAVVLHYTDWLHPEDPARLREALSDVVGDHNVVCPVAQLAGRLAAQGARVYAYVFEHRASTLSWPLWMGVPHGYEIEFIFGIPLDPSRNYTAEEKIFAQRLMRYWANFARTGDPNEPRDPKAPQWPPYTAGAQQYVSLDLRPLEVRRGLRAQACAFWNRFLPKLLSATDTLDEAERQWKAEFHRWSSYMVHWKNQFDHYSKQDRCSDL
Sequence of butyrylcholinesterase (BuChE) (P06276 29-602): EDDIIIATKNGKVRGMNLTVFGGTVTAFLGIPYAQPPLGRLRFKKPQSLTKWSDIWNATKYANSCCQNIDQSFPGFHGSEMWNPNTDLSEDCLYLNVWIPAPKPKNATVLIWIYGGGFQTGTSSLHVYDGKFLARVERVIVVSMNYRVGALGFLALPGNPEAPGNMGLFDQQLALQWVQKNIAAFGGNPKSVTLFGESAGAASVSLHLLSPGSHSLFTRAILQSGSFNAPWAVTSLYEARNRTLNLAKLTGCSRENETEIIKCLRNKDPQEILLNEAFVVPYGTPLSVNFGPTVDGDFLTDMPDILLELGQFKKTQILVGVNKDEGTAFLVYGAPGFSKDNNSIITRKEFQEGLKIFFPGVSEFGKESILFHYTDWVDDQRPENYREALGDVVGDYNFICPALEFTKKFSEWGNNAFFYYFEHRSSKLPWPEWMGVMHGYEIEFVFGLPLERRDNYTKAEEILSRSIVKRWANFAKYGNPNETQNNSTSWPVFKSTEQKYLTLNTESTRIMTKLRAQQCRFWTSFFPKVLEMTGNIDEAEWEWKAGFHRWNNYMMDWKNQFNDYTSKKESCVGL

`O=C(COc1ccc2c(c1)CCCC2)NN=c1scc(-c2ccc(Cl)cc2)n1-c1ccccc1` [Compound 4g, N′-[3-Phenyl-4-(4-chlorophenyl)thiazole-2(3H)-ylidene]-2-[(5,6,7,8-tetrahydronaphthalen-2-yl)oxy]acetohydrazide]: in the series on A549 cells, the “apoptosis (early + late apoptotic cell percentage) A549” value was “over 41.5%”, the “% Early Apoptotic” value was found to be 18.7%, the “% Late Apoptotic” value stood at 26.0% and the “% Necrotic” value is 5.8%. The “% Viable” value with A549 cells is on record as 49.4%. Further, in series [1], 483 ± 31.2 µM corresponded to half-maximal inhibition (IC50) and the “SI MCF-7 (selectivity index)” value is 0.5. In addition, the inhibition (usually the drop in the measured response relative to a control, in per cent) at 160 µM in series [2] amounted to 24.4 ± 1.2%. Further, the inhibition at 80 µg/mL in series [3] was less than 0%. Moreover, in series [4], the IC50 (in general, the midpoint of a concentration-inhibition curve) turned out to be 28.6 ± 4.1 µM and the “SI A549 (selectivity index)” value is reported as 7.8. Also, in series [5], inhibition was half-maximal at 224 ± 20.5 µM (IC50).
On to `O=C(COc1ccc2c(c1)CCCC2)NN=c1scc(-c2ccccc2)n1C1CCCCC1` [Compound 4a, N′-(3-Cyclohexyl-4-phenylthiazole-2(3H)-ylidene)-2-[(5,6,7,8-tetrahydronaphthalen-2-yl)oxy]acetohydrazide], for which, in the series on A549 cells, the “apoptosis (early + late apoptotic cell percentage) A549” value was “over 50%”, the “% Early Apoptotic” value is recorded as 7.4%, the “% Late Apoptotic” value was found to be 48.3% and the “% Necrotic” value worked out at 12.8%. The “% Viable” value in the series on A549 cells is on record as 31.5%. In addition, in series [1], the IC50 was more than 1000 µM and the “SI MCF-7 (selectivity index)” value was less than 0.2. For the same compound, the inhibition at 160 µM in series [2] worked out at 38.3 ± 2.18%. This compound yielded an inhibition at 160 µM in series [3] of 28 ± 1.88%. Besides, in series [4], the IC50 turned out to be 158 ± 14.8 µM and the “SI A549 (selectivity index)” value is on record as 1.3. This compound also had an IC50 in series [5] of 206 ± 15.3 µM.
With `O=C(COc1ccc2c(c1)CCCC2)NN=c1scc(-c2ccc(Br)cc2)n1-c1ccccc1` [Compound 4f, N′-[3-Phenyl-4-(4-bromophenyl)thiazole-2(3H)-ylidene]-2-[(5,6,7,8-tetrahydronaphthalen-2-yl)oxy]acetohydrazide], in the series with A549 cells, the “apoptosis (early + late apoptotic cell percentage) A549” value is given as “over 41.5%”, the “% Early Apoptotic” value turned out to be 16.5%, the “% Late Apoptotic” value was found to be 29.3% and the “% Necrotic” value was 6.5%. The “% Viable” value in the series on A549 cells was found to be 47.7%. Besides, in series [1], half-maximal inhibition (IC50) was put at 281 ± 56.2 µM and the “SI MCF-7 (selectivity index)” value is recorded as 0.5. Moreover, the inhibition at 160 µM in series [2] turned out to be 42.9 ± 2.84%. The inhibition at 80 µg/mL in series [3] was less than 0%. Further, in series [4], the IC50 was found to be 54.3 ± 6.8 µM and the “SI A549 (selectivity index)” value stood at 2.7. In series [5], this compound came in with an IC50 of 147 ± 5.4 µM.
On to `O=C(COc1ccc2c(c1)CCCC2)NN=c1scc(-c2ccc([N+](=O)[O-])cc2)n1-c1ccccc1` [Compound 4j, N′-[3-Phenyl-4-(4-nitrophenyl)thiazole-2(3H)-ylidene]-2-[(5,6,7,8-tetrahydronaphthalen-2-yl)oxy]acetohydrazide], for which, in the series on A549 cells, the “apoptosis (early + late apoptotic cell percentage) A549” value is given as “over 41.5%”, the “% Early Apoptotic” value is reported as 11.2%, the “% Late Apoptotic” value is given as 30.3% and the “% Necrotic” value is on record as 11.4%. The “% Viable” value with A549 cells worked out at 47.0%. Moreover, the IC50 in series [1] was more than 1000 µM. In series [2], this compound came in with an inhibition at 160 µM of 45 ± 1.6%. Also, the inhibition at 80 µg/mL in series [3] was less than 0%. For the same compound, in series [4], 49 ± 1.41 µM corresponded to half-maximal inhibition (IC50) and the “SI A549 (selectivity index)” value is on record as more than 20.4. The same compound returned an IC50 in series [5] of more than 1000 µM.
`O=C(COc1ccc2c(c1)CCCC2)NN=c1scc(-c2cccc(Cl)c2Cl)n1-c1ccccc1` [Compound 4k, N′-[3-Phenyl-4-(2,3-dichlorophenyl)thiazole-2(3H)-ylidene]-2-[(5,6,7,8-tetrahydronaphthalen-2-yl)oxy]acetohydrazide]: in series [1], inhibition was half-maximal at 153 ± 27.5 µM (IC50) and the “SI MCF-7 (selectivity index)” value turned out to be 1.1. In addition, testing at 160 µM in series [2] gave an inhibition of 15.2 ± 1.99%. The same compound displayed an inhibition at 80 µg/mL in series [3] of less than 0%. Besides, in the series on MCF-7 cells [6], the “% Early Apoptotic” value came out at 2.4%, the “% Late Apoptotic” value was found to be 8.9%, the “% Necrotic” value is on record as 34.4% and the “% Viable” value is given as 54.3%. Moreover, the IC50 in series [4] is more than 1000 µM. The compound also returned an IC50 in series [5] of 165 ± 11 µM.
As to `O=C(COc1ccc2c(c1)CCCC2)NN=c1scc(-c2cccc([N+](=O)[O-])c2)n1-c1ccccc1` [Compound 4i, N′-[3-Phenyl-4-(3-nitrophenyl)thiazole-2(3H)-ylidene]-2-[(5,6,7,8-tetrahydronaphthalen-2-yl)oxy]acetohydrazide], the IC50 in series [1], in series [4] and in series [5] was more than 1000 µM throughout. For the same compound, the inhibition at 160 µM in series [2] came to 41.85 ± 0.23%. In series [3], this compound gave an inhibition at 80 µg/mL of less than 0%.
Take `COc1ccc(-c2csc(=NNC(=O)COc3ccc4c(c3)CCCC4)n2-c2ccccc2)cc1` [Compound 4e, N′-[3-Phenyl-4-(4-methoxyphenyl)thiazole-2(3H)-ylidene]-2-[(5,6,7,8-tetrahydronaphthalen-2-yl)oxy]acetohydrazide]: in series [1], the midpoint of inhibition, the IC50, lay at 91.4 ± 9.8 µM and the “SI MCF-7 (selectivity index)” value is reported as more than 10.9. At 160 µM the inhibition in series [2] was 10.8 ± 0.94%. For the same compound, the inhibition at 80 µg/mL in series [3] is less than 0%. Further, the “apoptosis (early + late apoptotic cell percentage) MCF-7” value with MCF-7 cells [6] came to 32.5%. Also, in series [4], the IC50 turned out to be 708 ± 83.3 µM and the “SI A549 (selectivity index)” value is on record as more than 1.4. In series [5], the IC50 was more than 1000 µM.
For the compound `O=C(COc1ccc2c(c1)CCCC2)NN=c1scc(-c2ccccc2)n1-c1ccccc1` [Compound 4c, N′-[3,4-Diphenylthiazole-2(3H)-ylidene]-2-[(5,6,7,8-tetrahydronaphthalen-2-yl)oxy]acetohydrazide], the IC50 in series [1] is 297 ± 46.6 µM; in series [4], more than 1000 µM; in series [5], more than 1000 µM. For the same compound, in series [1], the “SI MCF-7 (selectivity index)” value was more than 3.4. Further, the inhibition at 160 µM in series [2] was 19.3 ± 1.87%; in series [3], 16.48 ± 0.08%.
With `Cc1ccc(-c2csc(=NNC(=O)COc3ccc4c(c3)CCCC4)n2-c2ccccc2)cc1` [Compound 4d, N′-[3-Phenyl-4-(4-methylphenyl)thiazole-2(3H)-ylidene]-2-[(5,6,7,8-tetrahydronaphthalen-2-yl)oxy]acetohydrazide], in series [1], 71.8 ± 12.5 µM corresponded to half-maximal inhibition (IC50) and the “SI MCF-7 (selectivity index)” value is recorded as more than 13.9. Moreover, the inhibition at 160 µM in series [2] came to 43.2 ± 1.56%. 160 µM produced 33.2 ± 2.38% inhibition in series [3]. Also, in the series on MCF-7 cells [6], the “% Early Apoptotic” value is 1.1%, the “% Late Apoptotic” value was 12.1%, the “% Necrotic” value amounted to 36.1% and the “% Viable” value is listed as 50.7%. Moreover, in the series on MCF-7 cells [7] (Homo sapiens, MCF7, 96 h, read-out: DNA synthesis inhibition on MCF-7 at IC50), the inhibition at 71.8 µM turned out to be 72.2%. For the same compound, the “DNA synthesis inhibition on MCF-7 at IC50/2” value with MCF-7 cells [7] (IC50/2 concentration (4b 34.6 μM; 4d 36.9 μM, b49: 35.9 μM)) was found to be 47.75%. This compound also returned an IC50 in series [4] of more than 1000 µM. Also, in series [5], the IC50 is more than 1000 µM.

Values taken from paper PMC6017121, “New Thiazoline-Tetralin Derivatives and Biological Activity Evaluation” (Molecules : A Journal of Synthetic Chemistry and Natural …, 2018).
